The record followed here is patent US7871999B2, “Substituted thiazoles and their use for producing drugs” (Gruenenthal GmbH, priority 2005, dated 2011).

Counter-ions that a name gives are not always drawn.

By IC50 is commonly meant the midpoint of a concentration-inhibition curve. A low value points to greater potency. Broadly, the inhibition is the percentage by which the read-out fell short of the control.

The target in one experiment is T1, mGluR5 receptor (Sus scrofa, UniProt I3LUI7).
T1 construct: pig brain hemispheres without medulla, cerebellum and pons ... differential centrifugation at 900×g and 40,000×g
T1 sequence (I3LUI7 1-1212): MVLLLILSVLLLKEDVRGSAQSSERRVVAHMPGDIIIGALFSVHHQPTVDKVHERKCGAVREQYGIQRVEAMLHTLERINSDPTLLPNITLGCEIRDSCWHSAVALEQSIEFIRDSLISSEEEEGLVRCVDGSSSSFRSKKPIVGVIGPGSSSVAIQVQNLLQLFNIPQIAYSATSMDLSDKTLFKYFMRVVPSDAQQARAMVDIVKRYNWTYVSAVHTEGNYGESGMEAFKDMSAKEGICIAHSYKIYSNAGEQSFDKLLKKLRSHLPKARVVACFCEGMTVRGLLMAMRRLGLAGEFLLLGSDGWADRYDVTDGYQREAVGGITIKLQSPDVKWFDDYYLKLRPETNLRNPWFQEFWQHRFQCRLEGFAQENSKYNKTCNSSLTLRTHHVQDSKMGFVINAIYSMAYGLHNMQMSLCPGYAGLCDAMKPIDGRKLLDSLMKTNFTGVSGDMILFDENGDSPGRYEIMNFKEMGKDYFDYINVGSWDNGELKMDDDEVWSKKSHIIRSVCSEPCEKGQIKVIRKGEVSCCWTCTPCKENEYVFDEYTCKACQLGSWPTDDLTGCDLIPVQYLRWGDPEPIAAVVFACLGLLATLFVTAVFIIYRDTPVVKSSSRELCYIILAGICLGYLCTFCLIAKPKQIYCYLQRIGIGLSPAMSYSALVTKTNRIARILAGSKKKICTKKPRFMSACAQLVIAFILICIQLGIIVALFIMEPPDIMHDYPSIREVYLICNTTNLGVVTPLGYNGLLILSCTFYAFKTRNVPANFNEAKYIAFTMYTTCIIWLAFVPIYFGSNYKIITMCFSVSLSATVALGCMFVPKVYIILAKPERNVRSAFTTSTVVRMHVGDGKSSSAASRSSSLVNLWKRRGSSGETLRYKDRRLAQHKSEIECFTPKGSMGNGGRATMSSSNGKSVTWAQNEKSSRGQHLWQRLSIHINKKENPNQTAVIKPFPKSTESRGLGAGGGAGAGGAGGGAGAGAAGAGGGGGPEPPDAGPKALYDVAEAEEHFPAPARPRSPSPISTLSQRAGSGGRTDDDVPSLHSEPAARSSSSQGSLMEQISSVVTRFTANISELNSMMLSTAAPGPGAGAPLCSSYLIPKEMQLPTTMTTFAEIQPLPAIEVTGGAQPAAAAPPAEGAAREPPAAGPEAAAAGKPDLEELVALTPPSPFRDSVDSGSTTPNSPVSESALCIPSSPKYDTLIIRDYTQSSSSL
The experiment in a line: Inhibition of [^3H]-MPEP binding in the mGluR5 receptor binding assay (pig brain homogenate). To be noted: 5 nM [^3H]-MPEP. On the procedure:
I. Method for Determining the Inhibition of [^3H]-MPEP Binding in the mGluR5 Receptor Binding Assay […]
The batches are then filtered with the assistance of a Brandel Cell Harvester (Brandel, Robotic 9600 model) on Unifilter plates with glass filter mats (Perkin Elmer, order number 6005177) and then washed 3 times with buffer (as above) using 250 μl per sample. The filter plates are then dried for 60 min at 55° C. Then 30 μl of Ultima Gold™ scintillating material (Packard BioScience, order number 6013159) is added per well and after 3 hours the samples are measured using the β counter (Microbeta, Perkin Elmer). Nonspecific binding is determined by the addition of 10 μM MPEP (Tocris, order number 1212).
The molecule `CN(C(=O)C#Cc1ccccc1)C1CCN(c2nccs2)C1` (centres unmarked) [Example 2, N-methyl-3-phenyl-N-(1-(thiazol-2-yl)pyrrolidin-3-yl)propiolamide hydrochloride] displayed an IC50 of 1320 nM. In other words, the single-digit micromolar range.
Molecule `CN(CCNC(=O)C#Cc1cccc(Cl)c1)c1nc(Cl)cs1` [Example 37, 3-(3-chlorophenyl)-N-(2-((4-chlorothiazol-2-yl)(methyl)amino)ethyl)propiolamide] displayed a half-maximal inhibitory concentration (IC50) of 9.5 nM.
On to `CN(CCNC(=O)C#Cc1cccc(Cl)c1)c1nc2ccccc2s1` [Example 24, N-(2-(benzo[d]thiazol-2-yl(methyl)amino)ethyl)-3-(3-chlorophenyl)-propiolamide], for which the concentration for half-maximal inhibition (IC50) worked out at 2780 nM.
Molecule `CN(CCNc1nccs1)C(=O)C#Cc1ccccc1` [Example 10, N-methyl-N-(2-(thiazol-2-yl)amino)ethyl-3-phenylpropiolamide] registered an IC50 of 1860 nM.
On the same count and under the same terms, for `CN(C(=O)C#Cc1cccc(Cl)c1)C1CCCN(c2nccs2)C1` (centres unmarked) [Example 36, 3-(3-Chlorophenyl)-N-methyl-N-(1-(thiazol-2-yl)piperidin-3-yl)propiolamide] the value was 22 nM.
Same read-out and setting: for `O=C(C#Cc1ccccc1)NCCNc1nccs1` [Example 5, N-(2-((thiazol-2-yl)amino)ethyl)-3-phenylpropiolamide] the value was 1580 nM; for `CN(c1nccs1)C1CCCN(C(=O)C#Cc2ccccc2)C1` (centres unmarked) [Example 28, 3-(methyl-(thiazol-2-yl)-amino)-1-(3-phenylpropioloyl)piperidine], 1150 nM; for `Cc1csc(N(C)CCNC(=O)C#Cc2cccc(Cl)c2)n1` [Example 29, N-(2-(methyl-(4-methylthiazol-2-yl)amino)ethyl)-3-(3-chlorophenyl)-propiolamide], 27 nM.
On the same count and under the same terms, the same measure for `CN(C(=O)C#Cc1cccc(Cl)c1)C1CN(c2nccs2)C1` [Example 40, 3-(3-chlorophenyl)-N-methyl-N-(1-(thiazol-2-yl)azetidin-3-yl)-propiolamide]: 17 nM; for `CN(CC(=O)N(C)c1nccs1)C(=O)C#Cc1ccccc1` [Example 14, N-Methyl-N-(2-(methyl(thiazol-2-yl)amino)-2-oxoethyl)-3-phenylpropiolamide]: 4970 nM.
With `CCOC(=O)c1cnc(N(C)CCNC(=O)C#Cc2cccc(Cl)c2)s1` [Example 25, N-(2-(methyl-(5-ethoxycarbonylthiazol-2-yl)amino)ethyl)-3-(3-chlorophenyl)-propiolamide], the IC50 was 150 nM. Compared with the last molecule, the IC50 is about 33-fold lower.
For the molecule `Cc1cnc(N(C)CCNC(=O)C#Cc2cccc(Cl)c2)s1` [Example 30, 3-(3-Chlorophenyl)-N-(2-(methyl(5-methylthiazol-2-yl)amino)ethyl)propiolamide], the IC50 amounted to 77 nM.
Same read-out and setting: the same measure for `COC(=O)c1cnc(N(C)CCNC(=O)C#Cc2cccc(Cl)c2)s1` [Example 34, methyl 2-((2-(3-(3-chlorophenyl)-propiolamido)ethyl)(methyl)amino)thiazole-5-carboxylate]: 20 nM; for `CN(c1ncc(F)s1)C1CCN(C(=O)C#Cc2cccc(Cl)c2)C1` (centres unmarked) [Example 44, 1-(3-(3-Chlorophenyl)propioloyl)-3-(methyl(5-fluorothiazol-2-yl)amino)pyrrolidine]: 71 nM.
The same measure, in the same setting: for `CN(c1nccs1)C1CCN(C(=O)C#Cc2ccccc2)C1` (centres unmarked) [Example 22, 3-(Methyl(thiazol-2-yl)amino)-1-(3-phenylpropioloyl)pyrrolidine] the value was 350 nM; for `CN(CCNC(=O)C#Cc1cccc(Cl)c1)c1ncc(C#N)s1` [Example 42, 3-(3-chlorophenyl)-N-(2-((5-cyanothiazol-2-yl)(methyl)amino)ethyl)propiolamide], 220 nM.
Same read-out and setting: for `CN(CCNC(=O)C#Cc1cccc(Cl)c1)c1ncc(Cl)s1` [Example 38, 3-(3-chlorophenyl)-N-(2-((5-chlorothiazol-2-yl)(methyl)amino)ethyl)-propiolamide] the value was 160 nM.

Staying with this experiment, now noted: 1 μM test compound, 5 nM [^3H]-MPEP.
With `COc1cccc(C#CC(=O)NC2CCN(c3ncc(C)s3)C2)c1` (centres unmarked) [Example 78, 3-(3-methoxyphenyl)-N-(1-(5-methylthiazol-2-yl)pyrrolidin-3-yl)propiolamide], the inhibition at 1 µM is 26%.
Still for that read-out and setting: for `Cc1cnc(N2CCC(NC(=O)C#Cc3cccc(F)c3)C2)s1` (centres unmarked) [Example 81, 3-(3-fluorophenyl)-N-(1-(5-methylthiazol-2-yl)pyrrolidin-3-yl)propiolamide] the value was 57%; for `CC(C)(C)c1csc(N2CCC(NC(=O)C#Cc3cccc(Cl)c3)C2)n1` (centres unmarked) [Example 100, N-(1-(4-tert.-butylthiazol-2-yl)pyrrolidin-3-yl)-3-(3-chlorophenyl)propiolamide], 38%; for `Cc1cccc(C#CC(=O)NC2CCN(c3nc(C)cs3)C2)c1` (centres unmarked) [Example 72, N-(1-(4-methylthiazol-2-yl)pyrrolidin-3-yl)-3-m-tolylpropiolamide], 87%.
`Cc1csc(N2CCC(NC(=O)C#Cc3ccccc3F)C2)n1` (centres unmarked) [Example 70, 3-(2-fluorophenyl)-N-(1-(4-methylthiazol-2-yl)pyrrolidin-3-yl)propiolamide] showed an inhibition at 1 µM of 50%.
Molecule `Cc1csc(N2CCC(NC(=O)C#Cc3cccc(F)c3)C2)n1` (centres unmarked) [Example 67, 3-(3-fluorophenyl)-N-(1-(4-methylthiazol-2-yl)pyrrolidin-3-yl)propiolamide] yielded an inhibition at 1 µM of 76%.
The same measure, in the same setting: for `Cc1ccc(C#CC(=O)NC2CCN(c3nc(C(C)(C)C)cs3)C2)cc1` (centres unmarked) [Example 56, N-(1-(4-tert.-butylthiazol-2-yl)pyrrolidin-3-yl)-3-p-tolylpropiolamide] the value was 37%.
`Cc1cccc(C#CC(=O)NC2CCN(c3nc(C(C)(C)C)cs3)C2)c1` (centres unmarked) [Example 99, N-(1-(4-tert.-butylthiazol-2-yl)pyrrolidin-3-yl)-3-m-tolylpropiolamide] gave an inhibition at 1 µM of 46%.
On the same count and under the same terms, for `Cc1cnc(N2CCC(NC(=O)C#Cc3ccccc3F)C2)s1` (centres unmarked) [Example 77, 3-(2-fluorophenyl)-N-(1-(5-methylthiazol-2-yl)pyrrolidin-3-yl)propiolamide] the value was 21%; for `Cc1cnc(N2CCC(NC(=O)C#Cc3ccccc3)C2)s1` (centres unmarked) [Example 76, N-(1-(5-methylthiazol-2-yl)pyrrolidin-3-yl)-3-phenylpropiolamide], 56%.
Consider `COc1ccc(C#CC(=O)NC2CCN(c3nc(C(C)(C)C)cs3)C2)cc1` (centres unmarked) [Example 55, N-(1-(4-tert.-butylthiazol-2-yl)pyrrolidin-3-yl)-3-(4-methoxyphenyl)propiolamide], for which 1 µM produced 26% inhibition.
Still for that read-out and setting: for `Cc1csc(N2CCC(NC(=O)C#Cc3cccc(C(F)(F)F)c3)C2)n1` (centres unmarked) [Example 71, N-(1-(4-methylthiazol-2-yl)pyrrolidin-3-yl)-3-(3-(trifluoromethyl)phenyl)-propiolamide] the value was 59%; for `Cc1cnc(N2CCC(NC(=O)C#Cc3cccc(C(F)(F)F)c3)C2)s1` (centres unmarked) [Example 87, N-(1-(5-methylthiazol-2-yl)pyrrolidin-3-yl)-3-(3-(trifluoromethyl)phenyl)-propiolamide], 23%; for `Cc1cccc(C#CC(=O)NC2CCN(c3ncc(C)s3)C2)c1` (centres unmarked) [Example 74, N-(1-(5-methylthiazol-2-yl)pyrrolidin-3-yl)-3-m-tolylpropiolamide], 89%.
In turn, `CC(C)(C)c1csc(N2CCC(NC(=O)C#Cc3cccc(F)c3)C2)n1` (centres unmarked) [Example 59, N-(1-(4-tert.-butylthiazol-2-yl)pyrrolidin-3-yl)-3-(3-fluorophenyl)propiolamide] registered an inhibition at 1 µM of 34%.

Still in this experiment, the particulars now being: 10 μM test compound, 5 nM [^3H]-MPEP.
`Cc1cnc(N2CCC(NC(=O)C#Cc3cccs3)C2)s1` (centres unmarked) [Example 113, N-(1-(5-methylthiazol-2-yl)pyrrolidin-3-yl)-3-(thiophen-2-yl)propiolamide] had an inhibition at 10 µM of 22%.
On the same count and under the same terms, the same measure for `CN(C(=O)C#Cc1ccccc1)C1CCCCC1N(C)c1nccs1` (centres unmarked) [Example 12, N-Methyl-N-(2-(methyl(thiazol-2-yl)amino)cyclohexyl)-3-phenylpropiolamide]: 41%; for `Cc1cnc(N2CCC(NC(=O)C#Cc3ccccn3)C2)s1` (centres unmarked) [Example 119, N-(1-(5-methylthiazol-2-yl)pyrrolidin-3-yl)-3-(pyridin-2-yl)propiolamide]: 20%; for `O=C(C#Cc1ccccc1)NC1CCN(c2nccs2)C1` (centres unmarked) [Example 1, 3-Phenyl-N-(1-(thiazol-2-yl)pyrrolidin-3-yl)propiolamide]: 66%.
For the molecule `O=C(C#Cc1ccccc1)N1CCCC(Nc2nccs2)C1` (centres unmarked) [Example 27, 3-(thiazol-2-yl-amino)-1-(3-phenylpropioloyl)piperidine], at 10 µM the inhibition was 19%.
Same read-out and setting: for `Cc1csc(N2CCC(NC(=O)C#Cc3cccc(Cl)c3)C2)n1` (centres unmarked) [Example 105, 3-(3-chlorophenyl)-N-(1-(4-methylthiazol-2-yl)pyrrolidin-3-yl)propiolamide] the value was 83%; for `O=C(C#Cc1ccccc1)NC1CCCCC1Nc1nccs1` (centres unmarked) [Example 6, 3-phenyl-N-(2-(thiazol-2-ylamino)cyclohexyl)propiolamide], 57%; for `Cc1nc(N2CCC(NC(=O)C#Cc3cccc(Cl)c3)C2)sc1C` (centres unmarked) [Example 110, 3-(3-chlorophenyl)-N-(1-(4,5-dimethylthiazol-2-yl)pyrrolidin-3-yl)propiolamide], 63%.
Still for that read-out and setting: the same measure for `Cc1csc(N2CCC(NC(=O)C#Cc3cccs3)C2)n1` (centres unmarked) [Example 106, N-(1-(4-methylthiazol-2-yl)pyrrolidin-3-yl)-3-(thiophen-2-yl)propiolamide]: 38%.
